The values below come from ChEMBL document CHEMBL1201862, “PubChem BioAssay data set” (2004).

Common to all, as to test: NCI-60 cell line screen, 48 h
The test system of assay [1] is HCT-15.
In assay [2] the test system is MOLT-4.
Assay [3] deals with MDA-MB-231.
Assay [4] has as its system Hs-578T.
In assay [5] the test system is SNB-75.
Assay [6] has as its system SK-MEL-2.
The test system of assay [7] is UACC-62.
In assay [8] the test system is A549.
Assay [9] deals with UACC-257.
The test system of assay [10] is MDA-MB-435.
The subject of assay [11] is LOX IMVI.
The subject of assay [12] is SK-OV-3.
For assay [13], the system named is MCF7.
The subject of assay [14] is RXF 393.
In assay [15] the test system is HCT-116.
The test system of assay [16] is RPMI-8226.
Assay [17] deals with SF-539.
For assay [18], the system named is CCRF-CEM.
Assay [19] deals with EKVX.

Each structure is given as a SMILES string.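 Grown in 96-well plates, cells were treated for 48 hours with each compound at five concentrations. Insufficient inhibition: endpoint recorded as highest concentration tested. Abbreviation: GI50, concentration required for 50% inhibition of growth.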 The source made the active and inactive calls. No stated cut-off is given here; in the data, active = GI50 up to about 1.1 µM and inactive = higher.

As for `CCOC(=O)[C@H]1C[C@@H](C(=O)c2ccccc2)N2N=C(c3ccc(Br)cc3)C=C[C@H]12`, the GI50 is over 100 µM in assay [1]; 77.6 µM (inactive) in assay [2]; > 100 µM (inactive) in assay [3]; > 100 µM (inactive) in [4]; > 100 µM (inactive) in assay [5]; > 100 µM (inactive) in assay [6]. The GI50 in assay [7], in assay [8], in assay [9], in [10], in assay [11] and in assay [12] was > 100 µM (inactive) in each case. In addition, the GI50 in [13], in [14], in assay [15] and in assay [16] was > 100 µM (inactive) in each case.
Consider `C[n+]1c(-c2ccc(/C=N\N3CCN(/N=C/c4ccc(-c5cn6ccsc6[n+]5C)cc4)CC3)cc2)cn2ccsc21`, for which the GI50 was 34.5 µM in assay [1]; 85.3 µM (inactive) in assay [2]; 20.7 µM (inactive) in assay [3]; 30.3 µM (inactive) in assay [17]; 19.2 µM (inactive) in [4]; 26.9 µM (inactive) in assay [5]. The GI50 in assay [6] was 31.8 µM (inactive); in assay [7] it was 22.1 µM (inactive); in assay [8], 44.1 µM (inactive); in assay [18], 36.7 µM (inactive); in assay [9], 19.5 µM (inactive); in assay [19], 43.5 µM (inactive). The GI50 in assay [10] was 26.7 µM (inactive); in assay [11] it was 60.8 µM (inactive); in assay [12] it was 8.04 µM (inactive); in [13], 29.9 µM (inactive); in assay [14], 27.3 µM (inactive); in [15], 33.3 µM (inactive). Further, the GI50 in assay [16] is 22.7 µM (inactive).
As to `CC(=O)Nc1ccc(-c2cc(C(=O)O)c3cc4ccccc4cc3n2)cc1`, the GI50 in assay [1] was over 100 µM; in assay [2] it was > 100 µM (inactive); in assay [3] it was > 100 µM (inactive); in assay [17], > 100 µM (inactive); in assay [4] it was > 100 µM (inactive); in [5], > 100 µM (inactive). The GI50 in assay [6], in assay [7], in assay [8], in assay [9], in assay [19] and in [10] was > 100 µM (inactive) each time. In addition, the GI50 in [11], in assay [12], in [13], in assay [14], in assay [15] and in [16] was > 100 µM (inactive) throughout.
For the compound `Cc1ccc(S(=O)(=O)NC2C(=O)c3ccccc3C(=O)C2n2ccnc2)cc1` (stereo not given), the GI50 is over 100 µM in [1]; 25.7 µM (inactive) in assay [2]; 16 µM (inactive) in assay [3]; > 100 µM (inactive) in assay [17]; > 100 µM (inactive) in [4]; > 100 µM (inactive) in assay [5]. Also, the GI50 was > 100 µM (inactive) in [6]; 33.1 µM (inactive) in assay [7]; > 100 µM (inactive) in assay [8]; 20 µM (inactive) in assay [18]; > 100 µM (inactive) in assay [9]; > 100 µM (inactive) in assay [19]. The GI50 is 17.9 µM (inactive) in [10]; 12.2 µM (inactive) in [11]; > 100 µM (inactive) in assay [12]; > 100 µM (inactive) in assay [13]; 31.2 µM (inactive) in [14]; 20.4 µM (inactive) in assay [15]. For the same compound, in assay [16], the GI50 is > 100 µM (inactive).
Consider `Cc1ccc(S(=O)(=O)NC(=O)NCCc2ccc(O)c(O)c2)cc1`, for which the GI50 is over 100 µM in [1]; 58.2 µM (inactive) in assay [2]; > 100 µM (inactive) in [3]; > 100 µM (inactive) in [17]; > 100 µM (inactive) in assay [4]; > 100 µM (inactive) in assay [5]. Further, the GI50 in [6] is > 100 µM (inactive); in assay [7] it was > 100 µM (inactive); in [8] it was > 100 µM (inactive); in [19], > 100 µM (inactive); in assay [10], 51.3 µM (inactive); in assay [11], 53.6 µM (inactive). Besides, the GI50 in assay [12] was > 100 µM (inactive); in assay [13], 61.8 µM (inactive); in assay [14] it was > 100 µM (inactive); in assay [15], > 100 µM (inactive); in assay [16] it was 38 µM (inactive).
`CC[C@@]12CCCN3CC[C@]4(c5cccc(OC)c5N(C(C)=O)[C@@H]4CC1)[C@H]32` [ASPIDOSPERMINE]: the GI50 in assay [1] was 79.3 µM; in assay [2] it was 25.3 µM (inactive); in assay [3] it was > 100 µM (inactive); in [17] it was 78.5 µM (inactive); in assay [4], 23.9 µM (inactive); in assay [6], 90.4 µM (inactive). In addition, the GI50 in assay [7] was > 100 µM (inactive); in assay [8], > 100 µM (inactive); in [18], 26.2 µM (inactive); in assay [9], 31.8 µM (inactive); in assay [19], 44.2 µM (inactive); in [10], 38.3 µM (inactive). For the same compound, the GI50 in assay [11] is 30.6 µM (inactive); in [12], > 100 µM (inactive); in assay [13], 63.1 µM (inactive); in assay [14] it was 60.4 µM (inactive); in assay [15], 44.9 µM (inactive); in assay [16], 38.2 µM (inactive).
For `Clc1ccc(CSc2ncnc3c2ncn3C2CCCCO2)cc1` (stereo not given), the GI50 in assay [1] is 26.5 µM; in assay [3], 24.5 µM (inactive); in assay [4], 26.5 µM (inactive); in [5], 20.2 µM (inactive); in [6] it was 16.4 µM (inactive); in assay [7] it was 15.7 µM (inactive). In addition, the GI50 in [8] is 25.2 µM (inactive); in assay [9] it was 11.2 µM (inactive); in [19] it was 13.4 µM (inactive); in assay [10] it was 18.2 µM (inactive); in [11] it was 18.5 µM (inactive); in [12], 21.4 µM (inactive). The GI50 is 26.6 µM (inactive) in assay [13], 25.1 µM (inactive) in [14], 20.8 µM (inactive) in [15] and 14.3 µM (inactive) in [16].
In the case of `Fc1cccc(Cl)c1/C=N\N=C1c2ccccc2-c2ccccc21`, the GI50 in [1] is 75.2 µM; in assay [2] it was 66.4 µM (inactive); in assay [3], 90.4 µM (inactive); in assay [17], 49.4 µM (inactive); in assay [4] it was 34.3 µM (inactive); in assay [6], > 100 µM (inactive). Moreover, the GI50 is > 100 µM (inactive) in assay [7]; 70 µM (inactive) in assay [8]; > 100 µM (inactive) in assay [18]; > 100 µM (inactive) in [9]; > 100 µM (inactive) in assay [19]; 36 µM (inactive) in assay [10]. Also, the GI50 in [11] is > 100 µM (inactive); in assay [12], > 100 µM (inactive); in assay [13], 11.8 µM (inactive); in assay [14], > 100 µM (inactive); in [15], > 100 µM (inactive); in assay [16] it was 33.9 µM (inactive).
With `COC(=O)C(CCCCN)NC(C)=O.Cc1ccc(C(=O)Nc2ccc(S(=O)(=O)O)c3cc(S(=O)(=O)O)cc(S(=O)(=O)O)c23)cc1NC(=O)c1cccc(NC(=O)Nc2cccc(C(=O)Nc3cc(C(=O)Nc4ccc(S(=O)(=O)O)c5cc(S(=O)(=O)O)cc(S(=O)(=O)O)c45)ccc3C)c2)c1`, the GI50 in [1] is 23.9 µM; in [2], > 50 µM (inactive); in [3] it was > 50 µM (inactive); in [17], > 50 µM (inactive); in assay [4], > 50 µM (inactive); in assay [5], > 50 µM (inactive). Also, the GI50 in [6], in assay [7], in assay [8], in assay [18], in assay [9] and in assay [10] was > 50 µM (inactive) throughout. Further, the GI50 was 44.8 µM (inactive) in [11]; > 50 µM (inactive) in assay [12]; > 50 µM (inactive) in [13]; 37.4 µM (inactive) in assay [14]; > 50 µM (inactive) in [15]; > 50 µM (inactive) in [16].
As to `Cc1nc2ccccc2c(=O)n1NC(=O)c1ccccc1O`, the GI50 was over 100 µM in assay [1]; > 100 µM (inactive) in assay [2]; > 100 µM (inactive) in assay [3]; > 100 µM (inactive) in [17]; > 100 µM (inactive) in [4]; > 100 µM (inactive) in [5]. The GI50 in assay [7], in [8], in assay [18], in assay [9], in assay [19] and in [10] was > 100 µM (inactive) throughout. Further, the GI50 in [11], in assay [12], in [13], in assay [14], in assay [15] and in assay [16] was > 100 µM (inactive) each time.
In the case of `COC(=O)c1ccccc1Nc1nc(-c2cccs2)nc2cc(OC)c(OC)cc12`, the GI50 in assay [1] was 90.2 µM; in assay [2], 57.9 µM (inactive); in [3] it was 28.9 µM (inactive); in assay [17], 27.4 µM (inactive); in [4], 30.3 µM (inactive); in [5] it was 75.3 µM (inactive). Moreover, the GI50 in assay [6] is 64.7 µM (inactive); in [7], 52.6 µM (inactive); in assay [8], 54 µM (inactive); in assay [9], 70.8 µM (inactive); in [19], 37.9 µM (inactive); in assay [10] it was > 100 µM (inactive). Besides, the GI50 was 39.4 µM (inactive) in [11]; 55.7 µM (inactive) in assay [12]; 72.3 µM (inactive) in [13]; 68.1 µM (inactive) in [14]; 37.5 µM (inactive) in [15]; 49.8 µM (inactive) in assay [16].
